Assay results: US4886817A, “Imidazolidinones as brain activators” (Tanabe Seiyaku Co., Ltd., priority 1986, dated 1989)

Key:
[1] = Gastric juice secretion in pylorus ligated rats; format: in vivo; settings: 30 mg/kg, intraperitoneal, 5 hours after administration
Excerpt: (§1) In addition, Compound (I) and a salt thereof may have also an inhibitory effect on gastric juice secretion and may be used for therapy and prophylaxy of peptic ulcer. […] Further, the compound of the present invention is low in toxicity and has high safety as pharmaceuticals.

[2] = Survival time of mice under hypobaric hypoxia (closed container, reduced pressure); format: in vivo; settings: 30 mg/kg (p.o.); pressure 165 mmHg
Excerpt: (§2) The compound (I) of the present invention and a salt thereof are useful as a cerebral activator. More particularly, Compound (I) and a salt thereof can effectively prolong the survival time of mice suffering from KCN-induced cerebral anoxia or hypobaric hypoxia, and show potent protective action against brain ischemia. Compound (I) and a salt thereof can also improve KCN-induced cerebral energy metabolism disorders. Further, Compound (I) and a salt thereof improve scopolamine-induced amnesia, and show potent anticonvulsive, AChE (acetylchline esterase) inhibitory and GABA-mimetic or GABA-potentiative actions. […] Based on these therapeutic effects, Compound (I) and a salt thereof can be used as a cerebral metabolism activator and/or a nootropic drug.

[3] = KCN-induced cerebral energy metabolism disorders; format: in vivo
Excerpt: as §2

[4] = Spontaneous locomotion in mice which received apomorphine; format: in vivo; settings: 45 mg/kg, oral; apomorphine 0.03 or 0.1 mg/kg, s.c.
Excerpt: Compound (I) of the present invention and a salt thereof can also be used as antidepressants because it can effectively shorten the immobility time of mice during forced swimming thereof and also increase spontaneous locomotor activity.

Acute toxicity (LD50) = settings: mouse, in vivo; oral, male Std/ddY mice, estimated 7 days after administration
Excerpt: as §1

[5] = Preventive effect on maximum electroshock-induced convulsion; format: in vivo, male Std/ddY mice; settings: 100 mg/kg, oral, 1 hour before electroshock
Excerpt: (Preventive effect on maximum electroshock-induced convulsion)
One hour after oral administration of a test compound to male Std/ddY mice, maximum electroshock (AC 900 V, 25 mA, 0.15 second) was delivered to said mice through corneal electrodes from an electrical stimulator.

With `O=C1N(C/C=C/C=C/c2ccccc2Cl)CCN1c1ccncc1` [(2E,4E)-1-[5-(2-chlorophenyl)-2,4-pentadienyl]-3-(4-pyridyl)-2-imidazolidinone] the “decrease in gastric juice secretion” value [1] was ≥ 42%.

In the case of `O=C1N(C/C=C/c2ccccc2)CCN1c1cccnc1` [(E)-1-cinnamyl-3-(3-pyridyl)-2-imidazolidinone], the “survival time of mice which suffered from hypobaric hypoxia” value [2] is reported as “significantly prolong the survival time”, the “KCN-induced cerebral metabolism disorders” value [3] is reported as “improve the KCN-induced cerebral metabolism disorders” and the “decrease in energy metabolism-relating substances (ATP, creatine-P, glucose or glycogen in the brain) induced by KCN” value [3] is reported as “inhibit the decrease”. The “spontaneous locomotion in mice which received apomorphine” value [4] was “significant increase” and the LD50 at 168 h (Acute toxicity (LD50)) was > 1500 mg/kg.

In the case of `O=C1N(C/C=C/c2ccc(Cl)cc2)CCN1c1cccnc1` [compound 1, (E)-1-(4-chlorocinnamyl)-3-(3-pyridyl)-2-imidazolidinone], the “inhibition of tonic extensive convulsion induced by maximum electroshock” value (from here on “inhibition”) [5] is reported as “completely inhibited”.

For `O=C1N(C/C=C/c2ccc(Cl)cc2)CCN1c1ccncc1` [compound 2, (E)-1-(4-chlorocinnamyl)-3-(4-pyridyl)-2-imidazolidinone], the “inhibition” value [5] was “completely inhibited”.

With `Cl.O=C1N(C/C=C/c2ccccc2)CCN1c1cccnc1` [compound 3, (E)-1-cinnamyl-3-(3-pyridyl)-2-imidazolidinone hydrochloride] the “inhibition” value [5] was “completely inhibited” and the “decrease in gastric juice secretion” value [1] was ≥ 42%.

For `O=C1N(C/C=C/c2ccccc2)CCN1c1ncccn1` [compound 4, (E)-1-cinnamyl-3-(2-pyrimidinyl)-2-imidazolidinone], the “inhibition” value [5] was “completely inhibited”.

For `O=C1N(C/C=C/c2cccc(Cl)c2)CCN1c1ccncc1` [compound 5, (E)-1-(3-chlorocinnamyl)-3-(4-pyridyl)-2-imidazolidinone], the “inhibition” value [5] was “completely inhibited”.

With `O=C1N(C/C=C/c2ccccc2Cl)CCN1c1ccncc1` [compound 6, (E)-1-(2-chlorocinnamyl)-3-(4-pyridyl)-2-imidazolidinone] the “inhibition” value [5] was “completely inhibited”.

In the case of `Cc1cccc(/C=C/CN2CCN(c3ccncc3)C2=O)c1` [compound 7, (E)-1-(3-methylcinnamyl)-3-(4-pyridyl)-2-imidazolidinone], the “inhibition” value [5] is reported as “completely inhibited”.

In the case of `O=C1N(CCC/C=C/c2ccccc2)CCN1c1ccncc1` [compound 8, (E)-1-(5-phenyl-4-pentenyl)-3-(4-pyridyl)-2-imidazolidinone], the “inhibition” value [5] is reported as “completely inhibited”.

With `O=C1N(C/C=C\c2ccccc2)CCN1c1ccncc1` [compound 9, (Z)-1-cinnamyl-3-(4-pyridyl)-2-imidazolidinone] the “inhibition” value [5] was “completely inhibited”.
